Each structure is given as a SMILES string. ± gives the expanded uncertainty stated by the source.

The conditions of this data set: Liquid; Ebulliometric method (Recirculating still).
`C[Si](C)(Cl)Cl` [dichlorodimethylsilane]: the Normal boiling temperature turned out to be 70.31 ± 0.2 °C.

As for `c1ccccc1` [benzene], the Normal boiling temperature turned out to be 80.01 ± 0.2 °C.

For `C[Si](Cl)(Cl)Cl` [trichloromethylsilane], the Normal boiling temperature came to 66.4 ± 0.2 °C.

The values above are taken from the NIST ThermoML archive (doi:10.1016/j.fluid.2006.01.014).
